The source of these data is patent publication US20220267288A1, “CARDIAC THERAPEUTIC” (priority 2019, published 2022).

Data set [1] is described as follows: Cytotoxicity (dead-cell protease, Mitochondrial ToxGlo) in differentiated H9c2 cells. Type of data set: cell-based. As to conditions: rat, differentiated H9c2 cells, 6 h exposure, read-out: cytotoxicity EC50 (bis-AAF-R110 dead-cell protease fluorescence). The protocol: (§1) H9c2 cell line was purchased from American Tissue Type Collection (ATCC) (Manassas, Va.). The cells were cultured in low-glucose DMEM growth media (Cat No: 31600, Thermo Fisher Scientific, Waltham, Mass.) supplemented with 1.5 g/L sodium bicarbonate, 25 mM HEPES, 10% fetal bovine serum (FBS) (GE Healthcare, Singapore), 100 units/mL penicillin, 100 μg/mL streptomycin and 250 ng/mL amphotericin B in 75-cm^2 tissue-culture flasks at 37° C. in a humidified atmosphere of 5% CO2. Cells were fed every 2-3 days and sub-cultured once 70-80% confluency was achieved to prevent the loss of differentiation potential. For differentiation, H9c2 cells were seeded at a density of 100,000 cells/well in 12-well plates. The cells were maintained for 1 day in low-glucose high-serum growth media to allow for cell attachment. Subsequently, cells were differentiated using 1 μM ATRA.
(§2) H9c2 cells were seeded in a white chimney plate and differentiated. The media was changed to DMEM with 10 mM galactose, 2 mM glutamine (6 mM final), 5 mM HEPES, 1 mM sodium pyruvate, 100 U/mL penicillin, 100 μg/mL streptomycin, 0.25 μg/mL amphotericin B, 1% FBS, 1× insulin-transferrin-selenium and 1 μM ATRA for 48 h to overcome the Crabtree effect. […] The cytotoxicity and intracellular ATP content were measured concurrently using Mitochondrial ToxGlo™ kit (Promega, Madison, Wis.) using manufacturer's protocol. Mitochondrial ToxGlo™ assay measures the cell viability using fluorogenic peptide bis-alanine-alanine-phenylalanine-R110 (bis-AAF-R110). Bis-AAF-R110 is a selective peptide that measures protease activity in dead cells since it is impermeable to live cells. Here, the fluorescence derived from metabolized bis-AAF-R110 was measured at different concentrations of the test compounds and compared to control. As the concentration of cytotoxic compound increases, the number of dead cells increases, leading to a higher fluorescence signal. ATP is measured by adding the ATP Detection Reagent, resulting in cell lysis and generation of a luminescent signal proportional to the amount of ATP present. […]

The test system of data set [2] is H9c2 cells. The data set is described as above. Type of data set: cell-based. The procedure: as §1, §2
A short description of data set [3]: Parallel artificial membrane permeability assay (PAMPA). Type of data set: in vitro ADME. Conditions: read-out: Effective permeability. The protocol:
The aqueous solubility of each compound was measured in universal buffer (pH 7.4) using MultiscreenHTS PCF Filter Plates. The effective permeability of each compound was measured using the parallel artificial membrane permeability assay (PAMPA).
In general terms: PAMPA measures passive passage across an artificial lipid membrane.

In data set [4] the target is T1, CYP2J2 (Homo sapiens, UniProt P51589).
T1 sequence (P51589 1-502): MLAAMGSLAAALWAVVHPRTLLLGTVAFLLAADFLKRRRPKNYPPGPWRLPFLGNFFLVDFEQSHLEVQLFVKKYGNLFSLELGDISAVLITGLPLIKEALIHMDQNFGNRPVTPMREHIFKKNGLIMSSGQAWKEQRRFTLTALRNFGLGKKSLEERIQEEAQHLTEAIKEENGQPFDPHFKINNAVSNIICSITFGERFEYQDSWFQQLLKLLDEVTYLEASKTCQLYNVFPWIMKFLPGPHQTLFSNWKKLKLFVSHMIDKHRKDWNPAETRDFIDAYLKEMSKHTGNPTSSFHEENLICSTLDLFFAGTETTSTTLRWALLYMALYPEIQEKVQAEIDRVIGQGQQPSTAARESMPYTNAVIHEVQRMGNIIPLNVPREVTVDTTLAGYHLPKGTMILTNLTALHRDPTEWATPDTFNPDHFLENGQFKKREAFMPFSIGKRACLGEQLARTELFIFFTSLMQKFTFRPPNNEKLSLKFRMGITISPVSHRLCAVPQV
The data set can be described thus: Time- and concentration-dependent inactivation (MBI) of CYP2J2, rivaroxaban as probe substrate. The class given is biochemical. Details: purchased BD Gentest (Woburn, Mass.). The procedure: Incubations were conducted in triplicates in 96-well plates. Primary incubation mixtures comprising various concentrations of inhibitor (0-20 μM) were pre-incubated at 37° C. for 3 min with CYP450 enzymes (20 pmol/m L) and NADPH B in potassium phosphate buffer (100 mM, pH 7.4). To initiate the enzymatic reaction, 5 μL NADPH A was added to the primary incubation. The final primary incubation mixture volume was 100 μL and contained <1% v/v organic solvent. At different pre-incubation time points (3, 8, 15, 22, 30, and 45 min) after the addition of NADPH A, 5 μL aliquots of the primary incubation were transferred to 95 μL of the secondary incubation containing 50 μM rivaroxaban, the NADPH A and B, and potassium phosphate buffer (100 mM, pH 7.4) to yield a 20-fold dilution. The secondary incubation mixtures were incubated at 37° C. for 30 min with CYP2J2, before 80 μL aliquots were removed and quenched with an equal volume of ice-cold ACN containing 4 μM dexamethasone as IS. The samples were then centrifuged at 3220 g at 4° C. for 30 min before transferring the supernatant to a 96-well plate for liquid chromatography-tandem mass spectrometry (LC-MS/MS) analysis. The main rivaroxaban metabolite, morpholinone hydroxylated metabolite, was quantified using LC-MS/MS analysis.
The mean of triplicate peak area ratios for each concentration and pre-incubation time was normalized to that of 0 μM with the same pre-incubation time. The amount of rivaroxaban metabolite formed during the secondary incubation, a measure of the probe substrate activity remaining, was computed and the natural logarithm of this measure was plotted against inactivation pre-incubation time for each inactivator concentration. […]
In equation 1, kinact=maximum inactivation rate constant at infinite inactivator concentration (in min^−1); KI=concentration of inactivator at the half-maximal rate constant of inactivation (in μM); [I]=in vitro inactivator concentration (in μM). MBI potency (kinact/KI ratio, μM-1·min-1) against human recombinant CYP2J2 is determined for each compound. […]

In general, EC50 refers to the concentration at which the effect is half-maximal. `CCCCc1oc2ccc(NS(C)(=O)=O)cc2c1C(=O)c1ccc(OCCCN(CCCC)CCCC)cc1.Cl` [Dronedarone]: in data set [1], the EC50 at 6 h was 1.21 µM. Also, the EC50 in data set [2] (6 h exposure, read-out: cytotoxicity EC50 (bis-AAF-R110 dead-cell protease fluorescence)) is 1.2 µM. Further, the “increase in the protease activity (cell death)” value in data set [2] (no pre-treatment with EETs) is recorded as 150-200%. In data set [3], the Papp is 3.46 ± 0.5 ×10⁻⁶ cm/s. In addition, in data set [4], the “inactivation (MBI) of CYP2J2, in words” value is “demonstrated inactivation of CYP2J2”.

Take `Cl.[2H]c1c(NS(C)(=O)=O)c([2H])c2c(C(=O)c3ccc(OCCCN(CCCC)CCCC)cc3)c(CCCC)oc2c1[2H]` [Poyendarone, Methanesulfonamide, N-(2-butyl-3-(4-(3-(dibutylamino)propoxy)benzoyl)-1-benzo(4,6,7-d3)-furan-5-yl)hydrochloride]: the Papp in data set [3] was found to be 4.08 ± 0.5 ×10⁻⁶ cm/s. Also, the “inactivation (MBI) of CYP2J2, in words” value in data set [4] was “does not cause MBI of CYP2J2”.
